Consider eleven molecules from PMC6113202.

Data set [1] has as its system Scram (DNA, duplex) GTCGTTCTGATCCAGGTGATGTAGTCGACG/CGTCGACTACATCACCTGGATCAGAACGAC
The experiment in a line: fluorescence turn-on. The conditions noted are these: KCl 150 mM in p53 buffer (80% v/v); NaCl 50 mM in DNA buffer (15% v/v); NaPi pH 7.2, DTT, Tris-HCl, 5% DMSO; room temperature; dye 100 nM.

Data set [2] deals with pDINP1 (DNA, duplex) TTATAGAACTTGGGGGAACATGTTTACCAA/TTGGTAAACATGTTCCCCCAAGTTCTATAA
The experiment in a line: fluorescence turn-on heat map. The conditions noted are these: KCl 150 mM in p53 buffer (80% v/v); NaCl 50 mM in DNA buffer (15% v/v); 4 μM dye, 250 nM DNA; NaPi pH 7.2, DTT, Tris-HCl, 5% DMSO; room temperature.

Data set [3] relates to IGF-BP3 (DNA, duplex) CTAGAAAACAAGCCACCAACATGCTTGCATG/CATGCAAGCATGTTGGTGGCTTGTTTTCTAG
The experiment in a line: fluorescence turn-on heat map. The conditions noted are these: KCl 150 mM in p53 buffer (80% v/v); NaCl 50 mM in DNA buffer (15% v/v); 4 μM dye, 250 nM DNA; NaPi pH 7.2, DTT, Tris-HCl, 5% DMSO; room temperature.

The subject of data set [4] is hairpin p21 RE (DNA, hairpin) GAAGAAGACTGGGCATGTCTAAAAAAGACATGCCCAGTCTTCTTC
The experiment in a line: fluorescence titration. Particulars: KCl 150 mM in p53 buffer (80% v/v), NaCl 50 mM in DNA buffer (15% v/v), per base pair, approximate, NaPi pH 7.2, DTT, Tris-HCl, room temperature, dye 100 nM.

In data set [5] the test system is p21 (DNA, duplex) TAGAGGAAGAAGACTGGGCATGTCTGGGCA/TGCCCAGACATGCCCAGTCTTCTTCCTCTA
The experiment in a line: fluorescent intercalator displacement by p53. Particulars: KCl 150 mM in p53 buffer (80% v/v); NaCl 50 mM in DNA buffer (15% v/v); 1 μM DNA, 10 μM dye; dye displaced by p53; NaPi pH 7.2, DTT, Tris-HCl, 5% DMSO.

Data set [6] concerns RGC (DNA, duplex) CACATGCCTTGCCTGGACTTGCCT/AGGCAAGTCCAGGCAAGGCATGTG
The experiment in a line: fluorescent intercalator displacement by p53. The conditions noted are these: KCl 150 mM in p53 buffer (80% v/v); NaCl 50 mM in DNA buffer (15% v/v); 1 μM DNA, 10 μM dye; dye displaced by p53; NaPi pH 7.2, DTT, Tris-HCl, 5% DMSO.

In data set [7] the target is T1, p53-WT (UniProt P04637 94-360). The experiment in a line: fluorescent intercalator displacement; AO-R; almost no displacement; 1 uM DNA, 10 uM dye; 5% DMSO, 80% p53 buffer (25 mM NaPi pH 7.2, 150 mM KCl, 4 mM DTT), 15% DNA buffer (10 mM Tris-HCl pH 8.0, 50 mM NaCl); room temperature (stated for rotor-DNA mixtures). Particulars: protein: recombinant; tags: N-terminal His6; chain copies: 4; blunt.
T1 sequence (P04637 94-360): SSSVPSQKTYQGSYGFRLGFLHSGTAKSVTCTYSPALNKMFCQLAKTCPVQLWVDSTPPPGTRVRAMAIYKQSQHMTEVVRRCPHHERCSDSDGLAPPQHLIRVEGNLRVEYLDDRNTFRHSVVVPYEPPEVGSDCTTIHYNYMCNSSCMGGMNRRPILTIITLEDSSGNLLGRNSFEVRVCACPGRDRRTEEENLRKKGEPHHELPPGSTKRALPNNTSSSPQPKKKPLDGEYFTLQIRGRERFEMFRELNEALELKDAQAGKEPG

Data set [8] has as its target T1, p53-WT. In words: fluorescent intercalator displacement; AO-R; p53 concentration-dependent; 1 uM DNA, 10 uM dye; 5% DMSO, 80% p53 buffer (25 mM NaPi pH 7.2, 150 mM KCl, 4 mM DTT), 15% DNA buffer (10 mM Tris-HCl pH 8.0, 50 mM NaCl); room temperature (stated for rotor-DNA mixtures). Particulars: protein: recombinant; tags: N-terminal His6; chain copies: 4; blunt.
The target in data set [9] is T1, p53-WT. The experiment in a line: fluorescent intercalator displacement; AO-R; strongest displacement of panel; 1 uM DNA, 10 uM dye; 5% DMSO, 80% p53 buffer (25 mM NaPi pH 7.2, 150 mM KCl, 4 mM DTT), 15% DNA buffer (10 mM Tris-HCl pH 8.0, 50 mM NaCl); room temperature (stated for rotor-DNA mixtures). The conditions noted are these: protein: recombinant; tags: N-terminal His6; chain copies: 4; blunt.

With `CN1C(=Cc2cc[n+](C)c3ccccc23)Sc2ccccc21`, the binding result in [1] is on record as “yes”.

For `C[n+]1ccc(/C=C/c2ccc(-n3c4ccc(/C=C/c5cc[n+](C)cc5)cc4c4cc(/C=C/c5cc[n+](C)cc5)ccc43)cc2)cc1`, the binding entry in data set [2] and in data set [3] was “yes” each time.

A word on the Kd: it is the equilibrium constant for the complex coming apart. Turning to `CN(C)c1ccc2cc3ccc(N(C)C)c(/C=C(\C#N)C(=O)O)c3nc2c1`, the Kd in data set [4] came out at 4.8 ± 0.8 µM. Besides, the binding entry in data set [5], in data set [1] and in [6] was “yes” each time.

For `CN1C(=Cc2cc[n+](CCCN)c3ccccc23)Sc2ccccc21`, in data set [1], the binding result is “yes”.

On to `CC[n+]1c(-c2ccccc2)c2cc(N)ccc2c2ccc(N)cc21`, for which the binding result in data set [1] was “yes”.

Consider `C[n+]1ccc(/C=C/c2ccc3c(c2)c2cc(/C=C/c4cc[n+](C)cc4)ccc2n3-c2ccccc2)cc1`, for which the binding result in data set [1], in [2] and in data set [3] was “yes” in each case.

As for `CN(C)c1ccc2cc3ccc(N(C)C)cc3nc2c1`, in data set [4], the equilibrium dissociation constant (Kd) came to 12.5 ± 1.0 µM. Further, the binding result in data set [1] is given as “yes”.

B1: Scram (dsDNA)
DNA 1: GTCGTTCTGATCCAGGTGATGTAGTCGACG
DNA 2: CGTCGACTACATCACCTGGATCAGAACGAC
With B1, the binding result in the data set with p53-WT [7] is “no binding”.

B2: p21 RE (dsDNA)
DNA 1: TAGAGGAAGAAGACTGGGCATGTCTGGGCA
DNA 2: TGCCCAGACATGCCCAGTCTTCTTCCTCTA
For B2, the binding result with p53-WT [8] is listed as “binds”.

B3: Con-A (dsDNA)
DNA 1: GGGCATGTCCGGGCATGTCC
DNA 2: GGACATGCCCGGACATGCCC
B3: in the data set with p53-WT [9], the binding result is on record as “binds”.

B4: RGC RE (dsDNA)
DNA 1: CACATGCCTTGCCTGGACTTGCCT
DNA 2: AGGCAAGTCCAGGCAAGGCATGTG
For B4, the binding result with p53-WT [8] is “binds”.
